# Legend:
# [1] = system: Cabbage Looper (Trichoplusia ni); experiment: Bioassay on Cabbage Looper (CL), 128-well diet tray assay; assay type: in vivo; conditions: 168 h, 50 μg/cm^2 on artificial diet, second instar larvae, five to seven days, read-out: CL % Control (or Mortality) rating
# Experimental: (§1) Certain molecules disclosed in this document were tested against BAW and CL using procedures described in the following examples. In the reporting of the results, the “BAW & CL Rating Table” was used (See Table Section).
# Bioassays on CL were conducted using a 128-well diet tray assay. One to five second instar CL larvae were placed in each well (3 mL) of the diet tray that had been previously filled with 1 mL of artificial diet to which 50 μg/cm^2 of the test molecule (dissolved in 50 μL of 90:10 acetone-water mixture) had been applied (to each of eight wells) and then allowed to dry. Trays were covered with a clear self-adhesive cover, vented to allow gas exchange, and held at 25° C., 14:10 light-dark for five to seven days. Percent mortality was recorded for the larvae in each well; activity in the eight wells was then averaged. The results are indicated in the table entitled “Table ABC: Biological Results” (See Table Section).
# [2] = system: Beet Armyworm (Spodoptera exigua); experiment: Bioassay on Beet Armyworm (BAW), 128-well diet tray assay; assay type: in vivo; conditions: for mortality at 50 µg/cm2: Spodoptera exigua, 168 h, 50 μg/cm^2 on artificial diet, second instar larvae, five to seven days, read-out: BAW % Control (or Mortality) rating
# Experimental: as §1
# Bioassays on BAW were conducted using a 128-well diet tray assay. […] Trays were covered with a clear self-adhesive cover, vented to allow gas exchange, and held at 25° C., 14:10 light-dark for five to seven days. Percent mortality was recorded for the larvae in each well; activity in the eight wells was then averaged. The results are indicated in the table entitled “Table ABC: Biological Results” (See Table Section).
Structure (SMILES),mortality at 50 µg/cm2 [1] [%],mortality at 50 µg/cm2 [2] [%],other results
"CN(NC(=O)c1ccc(/C(F)=C/[C@@H](c2cc(Cl)c(Cl)c(Cl)c2)C(F)(F)F)cc1C(F)(F)F)c1ncccn1 (single isomer, unassigned) [F17]",50 to 100,50 to 100,–
"CN(NC(=O)c1ccc(/C(F)=C/[C@H](c2cc(Cl)c(Cl)c(Cl)c2)C(F)(F)F)cc1C(F)(F)F)c1ncccn1 (single isomer, unassigned) [F29]",50 to 100,50 to 100,–
"O=C(NNc1ncccn1)c1ccc(/C(F)=C/[C@@H](c2cc(Cl)c(Cl)c(Cl)c2)C(F)(F)F)cc1C(F)(F)F (single isomer, unassigned) [F94]",50 to 100,50 to 100,BAW (Table CD-2) ([2]; 0.005 μg/cm^2): 0; BAW (Table CD-2) ([2]; 0.05 μg/cm^2): 0; BAW (Table CD-2) ([2]; 0.5 μg/cm^2): 7; BAW (Table CD-2) ([2]; 5.0 μg/cm^2): 100
"O=C(NNc1ncccn1)c1ccc(/C(F)=C/[C@H](c2cc(Cl)c(Cl)c(Cl)c2)C(F)(F)F)cc1C(F)(F)F (single isomer, unassigned) [F120]",50 to 100,50 to 100,BAW (Table CD-2) ([2]; 0.005 μg/cm^2): 100; BAW (Table CD-2) ([2]; 0.05 μg/cm^2): 100; BAW (Table CD-2) ([2]; 0.5 μg/cm^2): 100; BAW (Table CD-2) ([2]; 5.0 μg/cm^2): 100
"O=C(NNc1ncccn1)c1ccc(/C(F)=C/C(c2cc(Cl)c(Cl)c(Cl)c2)C(F)(F)F)cc1 (stereo not drawn) [1A, (Z)—N′-(Pyrimidin-2-yl)-4-(1,4,4,4-tetrafluoro-3-(3,4,5-trichlorophenyl)but-1-en-1-yl)benzohydrazide]",–,–,BAW (Table CD-1) ([2]; 0.05 μg/cm^2): 0; BAW (Table CD-1) ([2]; 5.0 μg/cm^2): 25; BAW (Table CD-1) ([2]; 50 μg/cm^2): 100
"CN(NC(=O)c1ccc(/C(F)=C/C(c2cc(Cl)c(F)c(Cl)c2)C(F)(F)F)cc1C(F)(F)F)c1ncccn1 (stereo not drawn) [F2, (Z)-4-(3-(3,5-Dichloro-4-fluorophenyl)-1,4,4,4-tetrafluorobut-1-en-1-yl)-N′-methyl-N′-(pyrimidin-2-yl)-2-(trifluoromethyl)benzohydrazide]",50 to 100,50 to 100,–
"CSc1nccc(NNC(=O)c2ccc(/C(F)=C/C(c3cc(Cl)c(Cl)c(Cl)c3)C(F)(F)F)cc2C(F)(F)F)n1 (stereo not drawn) [F5, (Z)—N′-(2-(Methylthio)pyrimidin-4-yl)-4-(1,4,4,4-tetrafluoro-3-(3,4,5-trichlorophenyl)but-1-en-1-yl)-2-(trifluoromethyl)benzohydrazide]",50 to 100,50 to 100,–
"O=C(NNc1ccccn1)c1ccc(/C(F)=C/C(c2cc(Br)c(F)c(Br)c2)C(F)(F)F)cc1C(F)(F)F (stereo not drawn) [F6, (Z)-4-(3-(3,5-Dibromo-4-fluorophenyl)-1,4,4,4-tetrafluorobut-1-en-1-yl)-N′-(pyridin-2-yl)-2-(trifluoromethyl)benzohydrazide]",50 to 100,50 to 100,–
"COc1cnc(N(C)NC(=O)c2ccc(/C(F)=C/C(c3cc(Cl)c(Cl)c(Cl)c3)C(F)(F)F)cc2C(F)(F)F)nc1 (stereo not drawn) [F12, (Z)—N′-(5-Methoxypyrimidin-2-yl)-N′-methyl-4-(1,4,4,4-tetrafluoro-3-(3,4,5-trichlorophenyl)but-1-en-1-yl)-2-(trifluoromethyl)benzohydrazide]",50 to 100,50 to 100,–
"O=C(NNc1nc(Cl)nc(Cl)n1)c1ccc(/C(F)=C/C(c2cc(Cl)c(Cl)c(Cl)c2)C(F)(F)F)cc1C(F)(F)F (stereo not drawn) [F13, (Z)—N′-(4,6-Dichloro-1,3,5-triazin-2-yl)-4-(1,4,4,4-tetrafluoro-3-(3,4,5-trichlorophenyl)but-1-en-1-yl)-2-(trifluoromethyl)benzohydrazide]",50 to 100,50 to 100,–
"COC(=O)c1scc(C)c1NNC(=O)c1ccc(/C(F)=C/C(c2cc(Cl)c(Cl)c(Cl)c2)C(F)(F)F)cc1C(F)(F)F (stereo not drawn) [F15, Methyl (Z)-4-methyl-3-(2-(4-(1,4,4,4-tetrafluoro-3-(3,4,5-trichlorophenyl)but-1-en-1-yl)-2-(trifluoromethyl)benzoyl)hydrazinyl)thiophene-2-carboxylate]",50 to 100,50 to 100,–
"O=C(NNc1cccc(Cl)n1)c1ccc(/C(F)=C/C(c2cc(Cl)c(Cl)c(Cl)c2)C(F)(F)F)cc1C(F)(F)F (stereo not drawn) [F18, (Z)—N′-(6-Chloropyridin-2-yl)-4-(1,4,4,4-tetrafluoro-3-(3,4,5-trichlorophenyl)but-1-en-1-yl)-2-(trifluoromethyl)benzohydrazide]",50 to 100,50 to 100,–
"O=C(NNc1ccncn1)c1ccc(/C(F)=C/C(c2cc(Cl)c(Cl)c(Cl)c2)C(F)(F)F)cc1C(F)(F)F (stereo not drawn) [F19, (Z)—N′-(Pyrimidin-4-yl)-4-(1,4,4,4-tetrafluoro-3-(3,4,5-trichlorophenyl)but-1-en-1-yl)-2-(trifluoromethyl)benzohydrazide]",50 to 100,50 to 100,–
"O=C(NNc1ncccn1)c1ccc(/C(F)=C/C(c2cc(Cl)c(Cl)c(Cl)c2)C(F)(F)F)cc1Cl (stereo not drawn) [F20, (Z)-2-Chloro-N′-(pyrimidin-2-yl)-4-(1,4,4,4-tetrafluoro-3-(3,4,5-trichlorophenyl)but-1-en-1-yl)benzohydrazide]",50 to 100,50 to 100,–
"CS(=O)(=O)c1nc(Cl)c(Cl)c(NNC(=O)c2ccc(/C(F)=C/C(c3cc(Cl)c(Cl)c(Cl)c3)C(F)(F)F)cc2C(F)(F)F)c1Cl (stereo not drawn) [F21, (Z)-4-(1,4,4,4-Tetrafluoro-3-(3,4,5-trichlorophenyl)but-1-en-1-yl)-N′-(2,3,5-trichloro-6-methylsulfonyl-4-pyridin-4-yl)-2-(trifluoromethyl)benzohydrazide]",50 to 100,50 to 100,–
"O=C(NNc1ccc(F)cc1F)c1ccc(/C(F)=C/C(c2cc(Cl)c(Cl)c(Cl)c2)C(F)(F)F)cc1C(F)(F)F (stereo not drawn) [F26, (Z)—N′-(2,4-Difluorophenyl)-4-(1,4,4,4-tetrafluoro-3-(3,4,5-trichlorophenyl)but-1-en-1-yl)-2-(trifluoromethyl)benzohydrazide]",50 to 100,50 to 100,–
"O=C(NNC1=NCCCN1)c1ccc(/C(F)=C/C(c2cc(Cl)c(Cl)c(Cl)c2)C(F)(F)F)cc1C(F)(F)F (stereo not drawn) [F27, (Z)-4-(1,4,4,4-Tetrafluoro-3-(3,4,5-trichlorophenyl)but-1-en-1-yl)-N′-(1,4,5,6-tetrahydropyrimidin-2-yl)-2-(trifluoromethyl)benzohydrazide]",50 to 100,50 to 100,–
"O=C(NNc1ccccc1F)c1ccc(/C(F)=C/C(c2cc(Cl)c(Cl)c(Cl)c2)C(F)(F)F)cc1C(F)(F)F (stereo not drawn) [F28, (Z)—N′-(2-fluorophenyl)-4-(1,4,4,4-tetrafluoro-3-(3,4,5-trichlorophenyl)but-1-en-1-yl)-2(trifluoromethyl)benzohydrazide]",50 to 100,50 to 100,–
"O=C(NNc1c(Cl)cnc(Cl)c1Cl)c1ccc(/C(F)=C/C(c2cc(Cl)c(Cl)c(Cl)c2)C(F)(F)F)cc1C(F)(F)F (stereo not drawn) [F30, (Z)-4-(1,4,4,4-Tetrafluoro-3-(3,4,5-trichlorophenyl)but-1-en-1-yl)-N′-(2,3,5-trichloro-4-pyridin-4-yl)-2-(trifluoromethyl)benzohydrazide]",50 to 100,50 to 100,–
"O=C(NNc1cncnc1)c1ccc(/C(F)=C/C(c2cc(Cl)c(Cl)c(Cl)c2)C(F)(F)F)cc1C(F)(F)F (stereo not drawn) [F31, (Z)—N′-(Pyrimidin-5-yl)-4-(1,4,4,4-tetrafluoro-3-(3,4,5-trichlorophenyl)but-1-en-1-yl)-2-(trifluoromethyl)benzohydrazide]",50 to 100,50 to 100,–
"O=C(NNc1ncccn1)c1ccc(/C(F)=C/C(c2ccc(F)c(C(F)(F)F)c2)C(F)(F)F)cc1C(F)(F)F (stereo not drawn) [F32, (Z)—N′-(Pyrimidin-2-yl)-4-(1,4,4,4-tetrafluoro-3-(4-fluoro-3-(trifluoromethyl)phenyl)but-1-en-1-yl)-2-(trifluoromethyl)benzohydrazide]",50 to 100,50 to 100,–
"O=C(NNc1ccnnc1)c1ccc(/C(F)=C/C(c2cc(Cl)c(Cl)c(Cl)c2)C(F)(F)F)cc1C(F)(F)F (stereo not drawn) [F33, (Z)—N′-(Pyridazin-4-yl)-4-(1,4,4,4-tetrafluoro-3-(3,4,5-trichlorophenyl)but-1-en-1-yl)-2-(trifluoromethyl)benzohydrazide]",50 to 100,50 to 100,–
"O=C(NNc1cccc(F)n1)c1ccc(/C(F)=C/C(c2cc(Cl)c(Cl)c(Cl)c2)C(F)(F)F)cc1C(F)(F)F (stereo not drawn) [F34, (Z)—N′-(6-Fluoropyridin-2-yl)-4-(1,4,4,4-tetrafluoro-3-(3,4,5-trichlorophenyl)but-1-en-1-yl)-2-(trifluoromethyl)benzohydrazide]",50 to 100,50 to 100,–
"Cc1cc(/C(F)=C/C(c2cc(Cl)c(Cl)c(Cl)c2)C(F)(F)F)ccc1C(=O)NNc1ncccn1 (stereo not drawn) [F37, (Z)-2-Methyl-N′-(pyrimidin-2-yl)-4-(1,4,4,4-tetrafluoro-3-(3,4,5-trichlorophenyl)but-1-en-1-yl)benzohydrazide]",50 to 100,50 to 100,BAW (Table CD-1) ([2]; 0.05 μg/cm^2): 0; BAW (Table CD-1) ([2]; 5.0 μg/cm^2): 100; BAW (Table CD-1) ([2]; 50 μg/cm^2): 100

# Reference: US10638756B2, “Molecules having pesticidal utility, and intermediates, compositions, and processes, related thereto” (Dow AgroSciences LLC, priority 2017, dated 2020)
